# Test results: ChEMBL document CHEMBL6115037, “Discovery of novel small molecules targeting TGF-β signaling for the treatment of non-small cell lung cancer” (Eur J Med Chem, 2025)
# Calls of active or inactive are those of the source. The rule behind the calls is not given here.
# What was measured:
# A549 [1] = test: Antiproliferative activity against human A549 cells assessed as inhibition of cell growth measured after 72 hrs by SRB method; format: functional, cell-based; conditions: A549, 72 h
# [2] = Permeability of the compound in PBS buffer assessed as drug recovery at pH 7.4 incubated for 16 hrs by PAMPA method; format: ADME; conditions: read-out: Drug recovery
# [3] = Water solubility of the compound […] at pH 9.0 incubated for 24 hrs under shaking condition by HPLC analysis; format: physicochemical
# [4] = Water solubility of the compound in PBS buffer at pH 2.0 incubated for 24 hrs under shaking condition by HPLC analysis; format: physicochemical
# [5] = Water solubility of the compound in PBS buffer at pH 7.4 incubated for 24 hrs under shaking condition by HPLC analysis; format: physicochemical
# A549 [6] = test: Inhibition of cell migration in human A549 cells at 0.5 uM incubated for 48 hrs by wound healing assay relative to control; format: functional
# A549 [7] = test: Antitumor activity against human A549 cells xenografted in female BALB/c nude mouse model assessed as decrease in tumor volume at 10 mg/kg via gavage fed with corn oil and measured every other day; format: functional, organism-based
# A549 [8] = test: Antiproliferative activity against human A549 cells harbouring si-NC at 0.5 uM by Western blot analysis relative to control; format: functional
# A549 [9] = test: Antitumor activity against human A549 cells xenografted in female BALB/c nude mouse model assessed as decrease in TbetaRI expression level at 10 mg/kg via gavage by Western blot analysis; format: functional, organism-based
# A549 [10] = test: Induction of cell apoptosis in human A549 cells assessed as increase in early apoptotic cells at 0.05 uM measured after 48 hrs by Annexin V-FITC/PI staining based flow cytometry analysis; format: functional
# A549 [11] = test: Inhibition of cell migration in human A549 cells incubated for 48 hrs by wound healing assay; format: functional, cell-based; conditions: dose 0.05-0.5 µM
# NCI-H441 = test: Antiproliferative activity against human NCI-H441 cells assessed as inhibition of cell growth measured after 72 hrs by SRB method; format: functional, cell-based; conditions: NCI-H441, 72 h
# NCI-H1299 [12] = test: Antiproliferative activity against human NCI-H1299 cells assessed as inhibition of cell growth measured after 72 hrs by SRB method; format: functional, cell-based; conditions: NCI-H1299, 72 h
# A549 [13] = test: Induction of cell cycle arrest in human A549 cells assessed as accumulation at G2/M phase at high concentration measured after 48 hrs by flow cytometric analysis; format: functional, cell-based
# NCI-H1299 [14] = test: Antiproliferative activity against human NCI-H1299 cells harbouring TbetaI by Western blot analysis; format: functional, cell-based; conditions: dose 0.05-0.5 µM
# A549 [15] = test: Downregulation of Smad2/3 phosphorylation level in human A549 cells measured after 48 hrs by Western blot analysis; format: functional, cell-based; conditions: dose 0.05-0.5 µM
# A549 [16] = test: Induction of cell cycle arrest in human A549 cells assessed as accumulation at G2/M phase measured after 48 hrs by flow cytometric analysis; format: functional, cell-based; conditions: dose 0.05-0.5 µM
# [17] = Toxicity in female BALB/c nude mouse assessed as effect on body weight loss at 10 mg/kg via gavage fed with corn oil for every other day; format: organism-based; conditions: in vivo, po
# A549 [18] = test: Antitumor activity against human A549 cells xenografted in female BALB/c nude mouse model assessed as decrease in TbetaRI level at 10 mg/kg via gavage by immunochemical staining based analysis; format: functional, organism-based
# A549 [19] = test: Inhibition of cell invasion in human A549 cells at 0.5 uM incubated for 48 hrs by crystal violet staining based transwell assay relative to control; format: functional
# A549 [20] = test: Antitumor activity against human A549 cells xenografted in female BALB/c nude mouse model assessed as decrease in Ki-67 expression at 10 mg/kg via gavage by immunochemical staining based analysis; format: functional, organism-based
# A549 [21] = test: Induction of cell apoptosis in human A549 cells assessed as increase in early apoptotic cells measured after 48 hrs by Annexin V-FITC/PI staining based flow cytometry analysis; format: functional; conditions: dose 0.05-0.5 µM
# NCI-H522 = test: Antiproliferative activity against human NCI-H522 cells assessed as inhibition of cell growth measured after 72 hrs by SRB method; format: functional, cell-based; conditions: NCI-H522, 72 h
# A549 [22] = test: Downregulation of TbetaRI protein expression in human A549 cells measured after 48 hrs by Western blot analysis; format: functional, cell-based; conditions: dose 0.05-0.5 µM
# NCI-H1299 [23] = test: Inhibition of colony formation in human NCI-H1299 cells at 0.05 to 0.5 uM measured after 48 hrs by crystal violet staining based inverted microscopic analysis; format: functional, cell-based; conditions: dose 0.05-0.5 µM
# A549 [24] = test: Antiproliferative activity against human A549 cells harbouring TbetaI knockout at 0.5 uM by Western blot analysis; format: functional, cell-based
# A549 [25] = test: Antitumor activity against human A549 cells xenografted in female BALB/c nude mouse model assessed as decrease in tumor weight at 10 mg/kg via gavage fed with corn oil and measured every other day; format: functional, organism-based
# A549 [26] = test: Inhibition of cell invasion in human A549 cells incubated for 48 hrs by crystal violet staining based transwell assay; format: functional; conditions: dose 0.05-0.5 µM
# A549 [27] = test: Inhibition of colony formation in human A549 cells at 0.5 uM measured after 48 days by crystal violet staining based inverted microscopic analysis relative to control; format: functional; conditions: A549, 1152 h, time 48 day
structure (smiles),measurement,setting,value
O=C(NCCO)c1cccc2c3c([nH]c12)CN(C(=O)Nc1ccccc1F)CC3,IC50,A549 [1],> 5000 nM
O=C(Cc1ccccc1F)N1CCc2c([nH]c3c(C(=O)N4CCC(CO)CC4)cccc23)C1,IC50,A549 [1],> 5000 nM
O=C(Cc1ccccc1F)N1CCc2c([nH]c3c(C(=O)N4CCC(O)CC4)cccc23)C1,IC50,A549 [1],> 5000 nM
O=C(NC1CCCC1O)c1cccc2c3c([nH]c12)CN(C(=O)Cc1cccs1)CC3 (stereo not drawn),IC50,A549 [1],70 nM
NC1CCC(OC(=O)c2cccc3c4c([nH]c23)CN(C(=O)Cc2ccccc2F)CC4)CC1 (stereo not drawn),IC50,A549 [1],> 5000 nM
CN(Cc1cnc2nc(N)nc(N)c2n1)c1ccc(C(=O)N[C@@H](CCC(=O)O)C(=O)O)cc1 [METHOTREXATE],recovery at 16 h,[2],96.2%
O=C(NC1CCC(C(=O)O)C1)c1cccc2c3c([nH]c12)CN(C(=O)Cc1ccccc1F)CC3 (stereo not drawn),IC50,A549 [1],> 5000 nM
O=C(NCCO)c1cc(NC(=O)C2CCOCC2)cc2c3c([nH]c12)CN(C(=O)Cc1ccccc1F)CC3,IC50,A549 [1],> 5000 nM
O=C(NC1CCCC1O)c1cccc2c3c([nH]c12)CN(C(=O)Cc1ccccc1F)CC3 (stereo not drawn),IC50,A549 [1],930 nM
O=C(NCCO)c1cccc2c3c([nH]c12)CN(S(=O)(=O)Cc1ccccc1F)CC3,IC50,A549 [1],1640 nM
O=C(NC1CCCCC1O)c1cccc2c3c([nH]c12)CN(C(=O)Cc1ccccc1F)CC3 (stereo not drawn),IC50,A549 [1],> 5000 nM
O=C(NC12CC3CC(CC(O)(C3)C1)C2)c1cccc2c3c([nH]c12)CN(C(=O)Cc1ccccc1F)CC3,IC50,A549 [1],130 nM
O=C(NCCO)c1cccc2c3c([nH]c12)CN(C(=O)Cc1c(F)cccc1F)CC3,IC50,A549 [1],> 5000 nM
O=C(Cc1ccccc1F)N1CCc2c([nH]c3c(C(=O)N4CCNCC4)cccc23)C1,IC50,A549 [1],> 5000 nM
O=C(Cc1ccccc1F)N1CCc2c([nH]c3c(C(=O)N4CCN(C5COC5)CC4)cccc23)C1,IC50,A549 [1],> 5000 nM
O=C(NC1CCC(O)CC1)c1cccc2c3c([nH]c12)CN(C(=O)Cc1ccccc1F)CC3 (stereo not drawn),IC50,A549 [1],490 nM
C[C@]12CC[C@H]3[C@@H](CCC4=CC(=O)CC[C@@]43C)[C@@H]1CC[C@@H]2O [TESTOSTERONE],recovery at 16 h,[2],85.6%
O=C(NC1CCCC(O)C1)c1cccc2c3c([nH]c12)CN(C(=O)Cc1ccccc1F)CC3 (stereo not drawn),IC50,A549 [1],120 nM
O=C(NCCO)c1cccc2c3c([nH]c12)CN(C(=O)Cc1ccco1)CC3,IC50,A549 [1],4010 nM
O=C(NCCO)c1cccc2c3c([nH]c12)CN(C(=O)Cc1ccccc1F)CC3,IC50,A549 [1],220 nM
NC1CCC(NC(=O)c2cccc3c4c([nH]c23)CN(C(=O)Cc2ccccc2F)CC4)C1 (stereo not drawn),IC50,A549 [1],> 5000 nM
C=CC(=O)Nc1cc(C(=O)NCCO)c2[nH]c3c(c2c1)CCN(C(=O)Cc1ccccc1F)C3,IC50,A549 [1],> 5000 nM
CC(=O)Nc1cc(C(=O)NCCO)c2[nH]c3c(c2c1)CCN(C(=O)Cc1ccccc1F)C3,IC50,A549 [1],> 5000 nM
O=C(NCCO)c1cccc2c3c([nH]c12)CN(C(=O)NCc1ccccc1F)CC3,IC50,A549 [1],> 5000 nM
O=C(Cc1ccccc1F)N1CCc2c([nH]c3c(C(=O)N4CCC(O)C4)cccc23)C1 (stereo not drawn),IC50,A549 [1],> 5000 nM
O=C(NCCO)c1cccc2c3c([nH]c12)CN(C(=O)Cc1cccs1)CC3,IC50,A549 [1],380 nM
O=C(NC1CCC(O)C1)c1cccc2c3c([nH]c12)CN(C(=O)Cc1ccccc1F)CC3 (stereo not drawn),IC50,A549 [1],220 nM
O=C(Cc1ccccc1)N1CCc2c([nH]c3ccccc23)C1,recovery at 16 h,[2],24.4%
same,solubility thermodynamic at 24 h,[3],10.7 µM
same,solubility thermodynamic at 24 h,[4],2.23 µM
same,IC50,A549 [1],9130 nM
same,solubility thermodynamic at 24 h,[5],7.24 µM
O=C(NCCO)c1cc(NC(=O)C2CCNCC2)cc2c3c([nH]c12)CN(C(=O)Cc1ccccc1F)CC3,IC50,A549 [1],> 5000 nM
O=C(NC1CCC(O)C1)c1cccc2c3c([nH]c12)CN(C(=O)Cc1cccs1)CC3 (stereo not drawn),inhibition at 0.5 µM,A549 [6],100%
same,Activity,A549 [7],Active
same,Activity,A549 [8],100%
same,Activity,A549 [9],Active
same,Activity,A549 [10],Active
same,recovery at 16 h,[2],65.8%
same,inhibition,A549 [11],Dose-dependent-effect
same,IC50,NCI-H441,90 nM
same,IC50,NCI-H1299 [12],210 nM
same,Activity,A549 [13],Active
same,Activity,NCI-H1299 [14],Dose-dependent-effect
same,Activity,A549 [15],Dose-dependent-effect
same,Activity,A549 [16],Dose-dependent-effect
same,Activity,[17],Non-toxic
same,Activity,A549 [18],Active
same,solubility thermodynamic at 24 h,[3],50.4 µM
same,inhibition at 0.5 µM,A549 [19],100%
same,Activity,A549 [20],Active
same,Activity,A549 [21],Dose-dependent-effect
same,solubility thermodynamic at 24 h,[4],40 µM
same,IC50,NCI-H522,260 nM
same,IC50,A549 [1],50 nM
same,Activity,A549 [22],Dose-dependent-effect
same,inhibition,NCI-H1299 [23],Active
same,Activity,A549 [24],inactive
same,Activity,A549 [25],Active
same,inhibition,A549 [26],Dose-dependent-effect
same,inhibition at 0.5 µM,A549 [27],100%
same,solubility thermodynamic at 24 h,[5],41.4 µM
NCCC(=O)Nc1cc(C(=O)NCCO)c2[nH]c3c(c2c1)CCN(C(=O)Cc1ccccc1F)C3,IC50,A549 [1],> 5000 nM
